Experimental data: paper PMC12395054, “Targeting MDM2 homodimer and heterodimer disruption with DRx-098D in TP53 wild-type and mutant cancer cells” (Molecular Therapy Oncology, 2025)

Assays:
MDM2:MDMX heterodimer = target: T1, MDM2:MDMX heterodimer (Homo sapiens, UniProt Q00987); assay: Proximity ligation assay, endogenous FL-MDM2 and MDMX in A549; format: cell-based; conditions: A549 (TP53 WT), 10% FBS
T1 construct: PLA of endogenous FL-MDM2 and MDMX in A549; endogenous in cells; host or cells: A549

HCT116 TP53 null cells = assay: Cell viability (CellTiter Glo 2.0); format: cell-based, human; conditions: 24 h, 2% FBS
Procedure: Immunocytochemistry. HCT116 TP53 null cells were seeded at 0.5 x 10^5 cells per well of a 12-well plate containing a sterilised 0.13-0.17mm glass coverslip in complete DMEM and incubated overnight. Cells were fixed in 4% paraformaldehyde (Sigma) for 15 minutes at room temperature, then permeabilised with 0.1% triton X100 (Sigma) for 4 minutes at room temperature. Cells were then blocked in 10% donkey serum, 1% BSA in PBS for 1 Hr at room temperature. Following blocking, cells were co-incubated in MDM2 (mouse) and MDMX (rabbit) primary antibodies overnight at 4 °C. Subsequently, secondary Alexa Fluor antibodies were co-incubated for a further 1 Hr at room temperature. […]
RTCA xCELLigence. Real-time cellular analysis (RTCA) of A549 cells was measured utilising the label-free cellular growth xCELLigence platform (Roche Applied Science, Agilent Technologies), where-by cellular impedance was leveraged as an indirect indicator of relative cell growth (i.e., cell index; CI). […] Relative growth (Δ growth) of treated A549 cells was assessed as a % difference of vehicle after 72 Hrs post-treatment (i.e., 100% relative cell growth at experiment endpoint).
Cell Viability. For MOLM-13, THP-1 (Fig. 3A), HCT116 TP53 wild-type, HCT116 TP53 null (Fig. 3D), HEK293, and IMR-90 (Fig. 3E) cells, relative cell viability was assessed via CellTiter Glo 2.0 Cell Viability Assay (Promega: […]

T1 sequence (Q00987 whole entry, one chain of several): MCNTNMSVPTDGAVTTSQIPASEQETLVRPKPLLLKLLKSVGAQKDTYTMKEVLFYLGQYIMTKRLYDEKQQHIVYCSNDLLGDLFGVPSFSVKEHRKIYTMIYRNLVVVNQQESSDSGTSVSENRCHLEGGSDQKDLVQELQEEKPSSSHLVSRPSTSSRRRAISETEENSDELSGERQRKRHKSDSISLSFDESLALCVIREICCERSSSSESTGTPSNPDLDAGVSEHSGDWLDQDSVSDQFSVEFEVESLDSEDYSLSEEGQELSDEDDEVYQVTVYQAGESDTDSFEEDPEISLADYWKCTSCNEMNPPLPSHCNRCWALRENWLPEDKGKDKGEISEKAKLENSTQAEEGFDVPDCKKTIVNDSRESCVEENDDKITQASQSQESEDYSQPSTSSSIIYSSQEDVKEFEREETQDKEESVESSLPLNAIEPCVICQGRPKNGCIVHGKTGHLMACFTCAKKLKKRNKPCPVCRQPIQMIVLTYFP

Question: How did the “Endogenous MDM2 heterodimerization, PLA” value (MDM2:MDMX heterodimer) turn out when `COc1cc(C(=O)O)ccc1NC(=O)[C@@H]1N[C@@H](CC(C)(C)C)[C@](C#N)(c2ccc(Cl)cc2F)[C@H]1c1cccc(Cl)c1F` [Idasanutlin] was run?
Answer: Its value is “did not affect MDM2 heterodimerization”.

Question: What about the “Relative cell viability / anti-proliferative activity (in words)” value (HCT116 TP53 null cells) of the same compound?
Answer: Its value is “no anti-proliferative activity”.
